In patent US8937092B2, “Aryl or N-heteroaryl substituted methanesulfonamide derivatives as vanilloid receptor ligands” (Gruenenthal GmbH, priority 2011, dated 2015):

Target: vanilloid receptor 1 (VR1/TRPV1 receptor) (Homo sapiens, UniProt Q8NER1)
Assay: Functional FLIPR Ca2+ influx assay on vanilloid receptor 1, capsaicin (Cap) stimulus
Assay type: cell-based
Settings: for Ki: Ki from IC50 by Cheng-Prusoff, read-out: (f) Ki (human being) [nM], Cap; for inhibition at 5 µM: read-out: (f) inhibition (human being), Cap, @5 μM
Protocol: Furthermore, preference may be given to compounds according to the invention that cause a 50 percent displacement of capsaicin, which is present at a concentration of 100 nM, in a FLIPR assay with CHO K1 cells which were transfected with the human VR1 gene at a concentration of less than 2,000 nM, preferably less than 1,000 nM, particularly preferably less than 300 nM, most particularly preferably less than 100 nM, even more preferably less than 75 nM, additionally preferably less than 50 nM, most preferably less than 10 nM.
In the process, the Ca^2+ influx is quantified in the FLIPR assay with the aid of a Ca^2+-sensitive dye (type Fluo-4, Molecular Probes Europe BV, Leiden, the Netherlands) in a fluorescent imaging plate reader (FLIPR, Molecular Devices, Sunnyvale, USA), as described hereinafter.
Pharmacological Methods I. Functional Testing Carried Out on the Vanilloid Receptor 1 (VRI/TRPV1 Receptor) […]
The number of cells in the suspension is set to 3×10^5 per mL and 150 μL of this suspension are in each case introduced into a recess in the cell culture plates coated as described hereinbefore. In the incubator the plates are left for two to three days at 37° C., 5% by volume of CO2 and 95% relative humidity. Subsequently, the cells are loaded with 2 μM of Fluo-4 and 0.01% by volume of Pluronic F127 (Molecular Probes Europe BV, Leiden, the Netherlands) in HBSS buffer (Hank's buffered saline solution, Gibco Invitrogen GmbH, Karlsruhe, Germany) for 30 min at 37° C., washed 3 times with HBSS buffer and after further incubation for 15 minutes at room temperature used for Ca^2+ measurement in a FLIPR assay. The Ca^2+-dependent fluorescence is in this case measured before and after the addition of substances (λex=488 nm, λem=540 nm). Quantification is carried out by measuring the highest fluorescence intensity (FC, fluorescence counts) over time.
The FLIPR protocol consists of 2 substance additions. First the compounds to be tested (10 μM) are pipetted onto the cells and the Ca^2+ influx is compared with the control (capsaicin 10 μM). This provides the result in % activation based on the Ca^2+ signal after the addition of 10 μM of capsaicin (CP). After 5 minutes' incubation, 100 nM of capsaicin are applied and the Ca^2+ influx is also determined.
Desensitising agonists and antagonists lead to suppression of the Ca^2+ influx. The % inhibition is calculated compared to the maximum achievable inhibition with 10 μM of capsazepine.
Triple analyses (n=3) are carried out and repeated in at least 3 independent experiments (N=4).
Starting from the percentage displacement caused by different concentrations of the compounds to be tested of general formula I, IC50 inhibitory concentrations which cause a 50-percent displacement of capsaicin were calculated. K, values for the test substances were obtained by conversion by means of the Cheng-Prusoff equation (Cheng, Prusoff; Biochem. Pharmacol. 22, 3099-3108, 1973).
The affinity of the compounds according to the invention for the vanilloid receptor 1 (VR1/TRPV1 receptor) was determined as described herein before (pharmacological method I).
The value after the “@” symbol indicates the concentration at which the inhibition (as a percentage) was respectively determined.

| Molecule | Ki [nM] | other results |
| --- | --- | --- |
| CC(C(=O)NCc1ccc(C(F)(F)F)nc1-c1cccc(C#N)c1)c1ccc(CNS(C)(=O)=O)c(F)c1 (stereo not shown) [Example 57, N-((2-(3-cyanophenyl)-6-(trifluoromethyl)pyridin-3-yl)methyl)-2-(3-fluoro-4-(methylsulfonamidomethyl)phenyl)propanamide] | 74 | – |
| Cc1cccc(-c2nc(C(F)(F)F)ccc2CNC(=O)[C@@H](C)c2ccc(CNS(C)(=O)=O)c(F)c2)c1 [Example 25, (S)-2-(3-fluoro-4-(methylsulfonamidomethyl)phenyl)-N-((2-m-tolyl-6-(trifluoromethyl)pyridin-3-yl)methyl)propanamide] | 15 | – |
| COc1cc(C)cc(-c2nc(C(F)(F)F)ccc2CNC(=O)C(C)c2ccc(CNS(C)(=O)=O)c(F)c2)c1 (stereo not shown) [Example 44, 2-(3-fluoro-4-(methylsulfonamidomethyl)phenyl)-N-((2-(3-methoxy-5-methylphenyl)-6-(trifluoromethyl)pyridin-3-yl)methyl)propanamide] | 106 | – |
| Cc1cccc(-c2nc(C(F)(F)F)ccc2CNC(=O)Nc2ccc(CNS(N)(=O)=O)c(F)c2)c1 [Example 86, 1-{3-fluoro-4-[(sulfamoylamino)methyl]phenyl}-3-{[2-m-tolyl-6-(trifluoromethyl)pyridin-3-yl]methyl}urea] | 6 | – |
| Cc1cccc(-c2nc(C(F)(F)F)ccc2CNC(=O)C(C)c2ccc(CNS(N)(=O)=O)c(F)c2)c1 (stereo not shown) [Example 85, 2-(3-fluoro-4-((sulfamoylamino)methyl)phenyl)-N-((2-m-tolyl-6-(trifluoromethyl)pyridin-3-yl)methyl)propanamide] | 3 | – |
| CC(C(=O)NCc1ccc(C(F)(F)F)nc1-c1ccc(F)c(Cl)c1)c1ccc(CNS(C)(=O)=O)c(F)c1 (stereo not shown) [Example 16, N-((2-(3-chloro-4-fluorophenyl)-6-(trifluoromethyl)pyridin-3-yl)methyl)-2-(3-fluoro-4-(methylsulfonamidomethyl)phenyl)propanamide] | 5 | – |
| Cc1cccc(-c2nc(C3CC3)ccc2CNC(=O)C(C)c2ccc(CNS(C)(=O)=O)c(F)c2)c1 (stereo not shown) [Example 20, N-((6-cyclopropyl-2-m-tolylpyridin-3-yl)methyl)-2-(3-fluoro-4-(methylsulfonamidomethyl)phenyl)propanamide] | 45 | – |
| 2-(3-methyl-4-(methylsulfonamidomethyl)phenyl)-N-((2-m-tolyl-6-(trifluoromethyl)pyridin-3-yl)methyl)propanamide [Example 97] | 4 | – |
| CC(C(=O)NCc1ccc(C(F)(F)F)nc1-c1cccc(N(C)C)c1)c1ccc(CNS(C)(=O)=O)c(F)c1 (stereo not shown) [Example 55, N-((2-(3-(dimethylamino)phenyl)-6-(trifluoromethyl)pyridin-3-yl)methyl)-2-(3-fluoro-4-(methylsulfonamidomethyl)phenyl)propanamide] | 42 | – |
| Cc1cccc(-c2nc(C(F)(F)F)ccc2CNC(=O)C(C)c2ccc(CNS(C)(=O)=O)c(F)c2)c1 (stereo not shown) [Example 24, 2-(3-fluoro-4-(methylsulfonamidomethyl)phenyl)-N-((2-m-tolyl-6-(trifluoromethyl)pyridin-3-yl)methyl)propanamide] | 6 | – |
| CC(C(=O)NCc1ccc(C(F)(F)F)nc1-c1cccnc1)c1ccc(CNS(C)(=O)=O)c(F)c1 (stereo not shown) [Example 67, 2-(3-fluoro-4-(methylsulfonamidomethyl)phenyl)-N-((6-(trifluoromethyl)-2,3′-bipyridin-3-yl)methyl)propanamide] | – | inhibition at 5 µM: 15% |
| CCS(=O)(=O)NCc1ccc(C(C)C(=O)NCc2ccc(C(F)(F)F)nc2-c2cccc(C)c2)cc1F (stereo not shown) [Example 83, 2-(4-(ethylsulfonamidomethyl)-3-fluorophenyl)-N-((2-m-tolyl-6-(trifluoromethyl)pyridin-3-yl)methyl)propanamide] | 74 | – |
| COc1cccc(-c2nc(C(F)(F)F)ccc2CNC(=O)C(C)c2ccc(CNS(C)(=O)=O)c(F)c2)c1 (stereo not shown) [Example 61, 2-(3-fluoro-4-(methylsulfonamidomethyl)phenyl)-N-((2-(3-methoxyphenyl)-6-(trifluoromethyl)pyridin-3-yl)methyl)propanamide] | 53 | – |
| C[C@H](C(=O)NCc1ccc(C(F)(F)F)nc1-c1ccc(F)c(Cl)c1)c1ccc(CNS(C)(=O)=O)c(F)c1 [Example 17, (S)—N-((2-(3-chloro-4-fluorophenyl)-6-(trifluoromethyl)pyridin-3-yl)methyl)-2-(3-fluoro-4-(methylsulfonamidomethyl)phenyl)propanamide] | 4 | – |
| N-((2-(2-ethoxy-5-methylphenyl)-6-(trifluoromethyl)pyridin-3-yl)methyl)-2-(3-fluoro-4-(methylsulfonamidomethyl)phenyl)propanamide [Example 48] | – | (f) inhibition (human being), Cap, @1 μM (inhibition at 1 μM): 15%@1 μM |
| CCOc1cc(C)cc(-c2nc(C(F)(F)F)ccc2CNC(=O)C(C)c2ccc(CNS(C)(=O)=O)c(F)c2)c1 (stereo not shown) [Example 47, N-((2-(3-ethoxy-5-methylphenyl)-6-(trifluoromethyl)pyridin-3-yl)methyl)-2-(3-fluoro-4-(methylsulfonamidomethyl)phenyl)propanamide] | 37 | – |
| COc1ccc(-c2nc(C(F)(F)F)ccc2CNC(=O)C(C)c2ccc(CNS(C)(=O)=O)c(F)c2)cc1F (stereo not shown) [Example 14, 2-(3-fluoro-4-(methylsulfonamidomethyl)phenyl)-N-((2-(3-fluoro-4-methoxyphenyl)-6-(trifluoromethyl)pyridin-3-yl)methyl)propanamide] | 68 | – |
| CC(C(=O)NCc1ccc(C(F)(F)F)nc1-c1cccc(O)c1)c1ccc(CNS(C)(=O)=O)c(F)c1 (stereo not shown) [Example 59, 2-(3-fluoro-4-(methylsulfonamidomethyl)phenyl)-N-((2-(3-hydroxyphenyl)-6-(trifluoromethyl)pyridin-3-yl)methyl)propanamide] | – | inhibition at 5 µM: 20% |
| Cc1cc(C)cc(-c2nc(C(F)(F)F)ccc2CNC(=O)C(C)c2ccc(CNS(C)(=O)=O)c(F)c2)c1 (stereo not shown) [Example 32, N-((2-(3,5-dimethylphenyl)-6-(trifluoromethyl)pyridin-3-yl)methyl)-2-(3-fluoro-4-(methylsulfonamidomethyl)phenyl)propanamide] | 22 | – |
| CC(C(=O)NCc1ccc(C(F)(F)F)nc1-c1ccc(F)cc1)c1ccc(CNS(C)(=O)=O)c(F)c1 (stereo not shown) [Example 8, 2-(3-fluoro-4-(methylsulfonamidomethyl)phenyl)-N-((2-(4-fluorophenyl)-6-(trifluoromethyl)pyridin-3-yl)methyl)propanamide] | 66 | – |
| CC(C(=O)NCc1ccc(C(F)(F)F)nc1-c1ccc(F)c(F)c1)c1ccc(CNS(C)(=O)=O)c(F)c1 (stereo not shown) [Example 10, N-((2-(3,4-difluorophenyl)-6-(trifluoromethyl)pyridin-3-yl)methyl)-2-(3-fluoro-4-(methylsulfonamidomethyl)phenyl)propanamide] | 17 | – |
| COCc1cccc(-c2nc(C(F)(F)F)ccc2CNC(=O)C(C)c2ccc(CNS(C)(=O)=O)c(F)c2)c1 (stereo not shown) [Example 49, 2-(3-fluoro-4-(methylsulfonamidomethyl)phenyl)-N-((2-(3-(methoxymethyl)phenyl)-6-(trifluoromethyl)pyridin-3-yl)methyl)propanamide] | 28 | – |
| CC(C(=O)NCc1ccc(C(F)(F)F)nc1-c1cccc(Cl)c1)c1ccc(CNS(C)(=O)=O)c(F)c1 (stereo not shown) [Example 15, N-((2-(3-chlorophenyl)-6-(trifluoromethyl)pyridin-3-yl)methyl)-2-(3-fluoro-4-(methylsulfonamidomethyl)phenyl)propanamide] | 10 | – |
| Cc1cccc(-c2nc(C(F)(F)F)ccc2CNC(=O)Nc2ccc(CNS(N)(=O)=O)cc2)c1 [Example 84, 1-{[2-m-tolyll-6-(trifluoromethyl)pyridin-3-yl]methyl}-3-{4-[(sulfamoylamino)methyl]phenyl}urea] | 9 | – |
| Cc1cc(F)cc(-c2nc(C(F)(F)F)ccc2CNC(=O)C(C)c2ccc(CNS(C)(=O)=O)c(F)c2)c1 (stereo not shown) [Example 36, 2-(3-fluoro-4-(methylsulfonamidomethyl)phenyl)-N-((2-(3-fluoro-5-methylphenyl)-6-(trifluoromethyl)pyridin-3-yl)methyl)propanamide] | 63 | – |
